# Measured values from patent EP2876105A1, “1-(CYCLOALKYL-CARBONYL)PROLINE DERIVATIVE” (Sumitomo Dainippon Pharma Co., Ltd., priority 2012, dated 2014).
# Where two headings read alike, the source gives them in different places.
# How the values were obtained:
# human FXIa = human FXIa (Homo sapiens, UniProt P03951); assay: In vitro activated factor XI (FXIa) inhibition test; assay type: biochemical
# Description: To the substrate, S-2366 (pyroGlu-Pro-Arg-pNA•HCl) was added to a final concentration of 300 µmol/L. After the reaction had progressed, the absorbance at OD 405 nm was measured. […]
# [1] = test system: endogenous coagulation pathway; assay: Activated partial thromboplastin time (aPTT) of blood sample from the rabbit venous thrombus test; assay type: in vivo; conditions: i.v.; for aPTT: blood collected 2 minutes after administration
# Description: In order to measure the activated partial thromboplastin time (aPTT) of the blood sample, which was to be used as an indicator of an endogenous coagulation pathway, 2 minutes after the administration of the test agent or the vehicle, blood was collected, and plasma was then prepared using 3.2% sodium citrate. The prepared plasma was incubated at 37°C for 7 minutes, and an STA reagent Cephascreen (used for aPTT measurement; manufactured by Roche Diagnostics) was added in an equal amount to the resulting plasma, and the obtained mixture was further incubated for 3 minutes. Thereafter, STA calcium chloride (manufactured by Roche Diagnostics) was added in an equal amount to the resultant, and the time required until coagulation was then measured.
# [2] = test system: rabbit model with venous thrombus; assay: Rabbit in vivo antithrombotic action evaluation test (venous thrombus model, thrombus weight); conditions: i.v.
# Description: A rabbit model with venous thrombus was produced by modifying the report of Wienen et al. (Wienen W. et al., J. Thromb. Haemost. 5:1237-1242 (2007)). A male rabbit (JW, 2-4 kg) was narcotized by inhalation of isoflurane (ISOFLU®, manufactured by DS Pharma Animal Health) (inductive anesthesia: 4%, continuous anesthesia: 1.5% to 2.5%). For intravenous administration of a test agent and blood collection, catheters were inserted into the left femoral vein and the left femoral artery. The left external jugular vein was exposed (2 cm) from a branch of the facial vein, the microvascular branch was then ligated, and a catheter was then inserted into the posterior facial vein. The external jugular vein (2 cm) exposed from each of an anterior facial vein branch and a facial vein branch was ligated with an artery clamp, and blood was then removed from a catheter left in the posterior facial vein. Blood in the blood vessel was washed with a normal saline, and 0.5% polidocanol (manufactured by Sigma) was injected into the blood vessel. It was then left for 5 minutes, so that the occurrence of a disorder in vascular endothelium was provoked. Thereafter, 0.5% polidocanol was removed, the inside of the blood vessel was then washed with a normal saline, and the artery clamp was then removed. The external jugular vein (2 cm) exposed from the facial vein branch, together with an injection needle 21G (manufactured by Terumo), was ligated with a silk thread, so that the inner diameter of the blood vessel was reduced to 0.8 mm. Twenty-five minutes after recirculation of the blood flow, the external jugular vein (2cm) exposed from the facial vein branch was excised, and the wet weight and dry weight of a thrombus formed in the blood vessel were measured. A test agent or a vehicle was administered to the rabbit 2 minutes before recirculation of the blood flow.
# [3] = Ester metabolism stabilization test: human liver stabilization test; assay type: in vitro ADME; conditions: human liver S9 with NADPH, 37°C, 30 minutes
# Description: A reaction solution prepared by mixing 5 µL of human liver S9 (manufactured by Xenotech, 20 mg/mL), 20 µL of 500 mmol/L Kpi (pH7.4), 40 µL of 5 mmol/L NADPH (manufactured by Oriental Yeast Co., Ltd.) aqueous solution, and 133 µL of ion exchange water was added to 2 µL of a DMSO solution containing 100 µmol/L test substance, and the thus obtained mixture was then incubated at 37°C for 30 minutes. After completion of the incubation, 600 µL of acetonitrile was added to the reaction solution, so that the metabolic reaction was terminated. The residual percentage of the test substance was measured using LC (LC-20A manufactured by Shimadzu Corporation) and -MS (API4000 manufactured by AB Sciex).
# [4] = Ester metabolism stabilization test: stabilization in human plasma test; assay type: in vitro ADME; conditions: 37°C, 30 minutes
# Description: 198 µL of human plasma (manufactured by Cosmo Bio) was added to 2 µL of a DMSO solution containing 100 µmol/L test substance, and the obtained mixture was then incubated at 37°C for 30 minutes. After completion of the incubation, 600 µL of acetonitrile was added to the reaction solution, so that the metabolic reaction was terminated. The residual percentage of the test substance was measured using LC (LC-20A manufactured by Shimadzu Corporation) and -MS (API4000 manufactured by AB Sciex).
# [5] = 0.35 µg/mL human FXIa, substrate S-2366 300 µmol/L, 37°C, 10 minutes, OD 405 nm, read-out: FXIa inhibitory activity IC50
# human FXIa, sequence (P03951 388-625 limits assumed): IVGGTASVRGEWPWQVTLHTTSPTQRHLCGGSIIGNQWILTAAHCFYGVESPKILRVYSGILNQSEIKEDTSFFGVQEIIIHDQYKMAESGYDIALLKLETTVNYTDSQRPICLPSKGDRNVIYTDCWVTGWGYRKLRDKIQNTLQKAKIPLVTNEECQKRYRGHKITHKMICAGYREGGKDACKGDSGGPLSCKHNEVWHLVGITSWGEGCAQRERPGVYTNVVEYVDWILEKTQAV
# human FXIa, sequence (P03951 19-387 partner limits assumed): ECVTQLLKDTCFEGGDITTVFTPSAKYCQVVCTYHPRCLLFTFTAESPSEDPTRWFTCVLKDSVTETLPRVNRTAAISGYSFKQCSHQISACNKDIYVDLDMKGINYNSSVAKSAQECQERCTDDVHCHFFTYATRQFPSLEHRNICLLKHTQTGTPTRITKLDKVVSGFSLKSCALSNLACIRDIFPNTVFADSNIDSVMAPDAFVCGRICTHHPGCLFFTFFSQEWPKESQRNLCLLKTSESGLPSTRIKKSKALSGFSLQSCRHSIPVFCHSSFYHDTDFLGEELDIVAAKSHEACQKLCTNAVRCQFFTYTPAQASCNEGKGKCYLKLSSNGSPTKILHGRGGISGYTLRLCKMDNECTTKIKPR
Compound,IC50 (human FXIa; [5]) [nM],IC50 (human FXIa) [nM],further results
N[C@H](CF)[C@H]1CC[C@H](C(=O)N2CC[C@@H](C3CCCCC3)[C@H]2C(=O)Nc2ccc3[nH]c(C(=O)NS(=O)(=O)N4CCCCC4)cc3c2)CC1 [compound 213],10,–,–
N[C@H](CF)[C@H]1CC[C@H](C(=O)N2CC[C@@H](C3CCCCC3)[C@H]2C(=O)Nc2ccc(C(=O)NS(=O)(=O)c3ccccc3)c(F)c2)CC1 [compound 133],99,–,–
COC1CCC([C@@H]2CCN(C(=O)[C@H]3CC[C@H]([C@H](N)CF)CC3)[C@@H]2C(=O)Nc2ccc3oc(C(=O)O)cc3c2)CC1 (stereo partly drawn) [compound 102],–,93,–
N[C@H](CF)[C@H]1CC[C@H](C(=O)N2CC[C@@H](C3CCCCC3)[C@H]2C(=O)Nc2ccc(C(=O)NCc3ccccn3)cc2)CC1 [compound 137],–,380,–
COC1CCC([C@@H]2CCN(C(=O)[C@H]3CC[C@H]([C@H](N)CF)CC3)[C@@H]2C(=O)Nc2ccc3oc(C(=O)O)cc3c2)CC1 (stereo partly drawn) [compound 103],2350,–,–
Cc1noc(-c2ccc(NC(=O)[C@@H]3[C@H](C4CCCCC4)CCN3C(=O)[C@H]3CC[C@H]([C@H](N)CF)CC3)cc2)n1 [compound 115],1500,–,–
COC1CCC([C@H]2CCN(C(=O)[C@H]3CC[C@H]([C@H](N)CF)CC3)[C@H]2C(=O)Nc2ccc3oc(C(=O)O)cc3c2)CC1 (stereo partly drawn) [compound 187],–,285,–
"N[C@H](CF)[C@H]1CC[C@H](C(=O)N2CCC(C3CCCCC3)[C@H]2C(=O)Nc2ccc3oc(C(=O)O)cc3c2)CC1 (single isomer, unassigned) [compound 53]",–,34,aPTT (% vehicle) ([1]; dose 0.1 mg/kg): 103%; aPTT ([1]; dose 0.1 mg/kg): 17.8 s; aPTT (% vehicle) ([1]; dose 0.3 mg/kg): 117%; aPTT ([1]; dose 0.3 mg/kg): 20.3 s; aPTT (% vehicle) ([1]; dose 1.0 mg/kg): 140%; aPTT ([1]; dose 1.0 mg/kg): 24.2 s; aPTT (% vehicle) ([1]; dose 3.0 mg/kg): 166%; aPTT ([1]; dose 3.0 mg/kg): 28.8 s; Thrombus (% inhibition) ([2]; dose 0.1 mg/kg): 25%; Thrombus weight ([2]; dose 0.1 mg/kg): 51.3 mg; Thrombus (% inhibition) ([2]; dose 0.3 mg/kg): 56%; Thrombus weight ([2]; dose 0.3 mg/kg): 30.3 mg; Thrombus (% inhibition) ([2]; dose 1.0 mg/kg): 79%; Thrombus weight ([2]; dose 1.0 mg/kg): 14.7 mg; Thrombus (% inhibition) ([2]; dose 3.0 mg/kg): 80%; Thrombus weight ([2]; dose 3.0 mg/kg): 14.0 mg
N[C@H](CF)[C@H]1CC[C@H](C(=O)N2CC[C@@H](C3CCCCC3)[C@H]2C(=O)Nc2ccc3oc(C(=O)NS(=O)(=O)c4ccccc4)cc3c2)CC1 [compound 121],–,43,–
CS(=O)(=O)NC(=O)c1ccc(NC(=O)[C@@H]2[C@H](C3CCCCC3)CCN2C(=O)[C@H]2CC[C@H]([C@H](N)CF)CC2)cc1 [compound 147],205,–,–
CC(C)OC(=O)OC(C)OC(=O)c1cc2cc(NC(=O)[C@@H]3[C@H](C4CCCCC4)CCN3C(=O)[C@H]3CC[C@H]([C@H](N)CF)CC3)ccc2[nH]1 (stereo partly drawn) [compound 128],–,–,Residual percentage (%) Human liver S9 [3]: 47%; Residual percentage (%) Human plasma [4]: 82%
COC(=O)Nc1nc2ccc(NC(=O)[C@@H]3[C@H](C4CCCCC4)CCN3C(=O)[C@H]3CC[C@H]([C@H](N)CF)CC3)cc2s1 [compound 148],140,–,–
N[C@H](CF)[C@H]1CC[C@H](C(=O)N2CC[C@@H](C3CCCCC3)[C@H]2C(=O)Nc2ccc3oc(C(=O)NS(=O)(=O)N4CCOCC4)cc3c2)CC1 [compound 212],–,8,–
CC(N)[C@H]1CC[C@H](C(=O)N2CC[C@H](c3ccccc3)[C@H]2C(=O)Nc2ccc3oc(C(=O)O)cc3c2)CC1 (stereo partly drawn) [compound 46],90,–,–
"(1R)-1-([(1S)-1-(trans-4-{[(2S,3S)-3-Cyclohexyl-2-{[4-(1H-tetrazol-5-yl)phenyl]carbamoyl}pyrrolidin-1-yl]carbonyl}cyclohexyl)-2-fluoroethyl]carbamoyl}oxy)ethyl 2-methylpropanoate [Example 205]",–,–,Residual percentage (%) Human liver S9 [3]: 3.5%; Residual percentage (%) Human plasma [4]: 60%
CN(C)S(=O)(=O)NC(=O)c1cc2cc(NC(=O)[C@@H]3[C@H](C4CCCCC4)CCN3C(=O)[C@H]3CC[C@H]([C@H](N)CF)CC3)ccc2o1 [compound 211],29,–,–
N[C@H](CF)[C@H]1CC[C@H](C(=O)N2CC[C@@H](C3CCCCC3)[C@H]2C(=O)Nc2ccc3[nH]c(C(=O)O)c(Cl)c3c2)CC1 [compound 184],30,–,–

Compound,IC50 (human FXIa; [5]) [nM],IC50 (human FXIa) [nM],further results
NC(CF)[C@H]1CC[C@H](C(=O)N2CC[C@@H](C3CCCCC3)[C@H]2C(=O)Nc2ccc3[nH]c(C(=O)O)c(Cl)c3c2)CC1 (stereo partly drawn) [compound 34],28,–,–
NC[C@H]1CC[C@H](C(=O)N2CC[C@@H](c3ccccc3)[C@H]2C(=O)Nc2ccc(-c3nc(=O)o[nH]3)c(F)c2)CC1 [compound 14],130,–,–
NC[C@H]1CC[C@H](C(=O)N2CCC(c3ccccc3)[C@H]2C(=O)Nc2ccc3[nH]c(C(N)=O)cc3c2)CC1 (stereo partly drawn) [compound 24],34,–,–
Cc1c(C(=O)O)[nH]c2ccc(NC(=O)[C@@H]3[C@H](C4CCCCC4)CCN3C(=O)[C@H]3CC[C@H](C(N)CF)CC3)cc12 (stereo partly drawn) [compound 39],63,–,–
NC(CF)[C@H]1CC[C@H](C(=O)N2CC[C@@H](C3CCCCC3)[C@H]2C(=O)Nc2ccc3[nH]c(C(=O)O)cc3c2)CC1 (stereo partly drawn) [compound 35],14,–,–
N[C@H](C(F)F)[C@H]1CC[C@H](C(=O)N2CC[C@@H](C3CCCCC3)[C@H]2C(=O)Nc2ccc3oc(C(=O)O)cc3c2)CC1 [compound 146],916,–,–
N[C@H](CF)[C@H]1CC[C@H](C(=O)N2CC[C@H](c3ccccc3)[C@H]2C(=O)Nc2ccc3[nH]c(C(=O)NS(=O)(=O)N4CCOCC4)cc3c2)CC1 [compound 122],–,690,–
CS(=O)(=O)NC(=O)c1cc2cc(NC(=O)[C@@H]3[C@H](C4CCCCC4)CCN3C(=O)[C@H]3CC[C@H]([C@H](N)CF)CC3)ccc2[nH]1 [compound 114],7,–,–
N[C@H](CF)[C@H]1CC[C@H](C(=O)N2CC[C@@H](C3CCCCC3)[C@H]2C(=O)Nc2ccc(C(=O)NS(=O)(=O)c3ccccc3)cc2)CC1 [compound 118],–,65,–
"N[C@H](CF)[C@H]1CC[C@H](C(=O)N2CCC(C3CCCCC3)[C@H]2C(=O)Nc2ccc3sc(C(=O)O)cc3c2)CC1 (single isomer, unassigned) [compound 130]",–,195,–
N[C@H](CF)[C@H]1CC[C@H](C(=O)N2CC[C@@H](C3CCCCC3)[C@H]2C(=O)Nc2ccc(C(=O)NS(=O)(=O)c3ccccn3)cc2)CC1 [compound 134],–,54,–
N[C@H](CF)[C@H]1CC[C@H](C(=O)N2CC[C@@H](C3CCCCC3)[C@H]2C(=O)Nc2ccc(C(=O)O)cc2)CC1 [compound 96],98,–,–
Cc1c(C(=O)O)oc2ccc(NC(=O)[C@@H]3[C@H](C4CCCCC4)CCN3C(=O)[C@H]3CC[C@H]([C@H](N)CF)CC3)cc12 [compound 55],220,–,–
NC(CF)[C@H]1CC[C@H](C(=O)N2CC[C@@H](C3CCCCC3)[C@H]2C(=O)Nc2ccc3oc(C(=O)O)cc3c2)CC1 (stereo partly drawn) [compound 50],–,84,–
COCCOCCCOC(=O)c1cc2cc(NC(=O)[C@@H]3[C@H](C4CCC(OC)CC4)CCN3C(=O)[C@H]3CC[C@H]([C@H](N)CF)CC3)ccc2o1 (stereo partly drawn) [compound 196],–,3500,–
Cn1c(C(=O)O)cc2cc(NC(=O)[C@@H]3[C@H](C4CCCCC4)CCN3C(=O)[C@H]3CC[C@H](C(N)CF)CC3)ccc21 (stereo partly drawn) [compound 29],82,–,–
